These results are taken from ChEMBL document CHEMBL1201862, “PubChem BioAssay data set” (2004).

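Protocol summary: plate cells (96-well), add compound at 5 concentrations, incubate 48 h, interpolate endpoints linearly. GI50: concentration for 50% inhibition of growth.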 Activity calls are given as the source filed them. No stated cut-off is given here; in the data, active = GI50 up to about 1.1 µM and inactive = higher.

Common to all, as to test: DTP human tumour cell line panel, 48 h
Test [1] has as its system OVCAR-4.
In test [2] the test system is Malme-3M.
For test [3], the system named is M14.
Test [4] has as its system BT-549.
For test [5], the system named is SK-MEL-2.
The subject of test [6] is LOX IMVI.
In test [7] the test system is SF-268.
In test [8] the test system is KM12.
Test [9] concerns SN12C.
For test [10], the system named is HOP-92.
In test [11] the test system is MOLT-4.
Test [12] concerns NCI/ADR-RES.
For test [13], the system named is A549.
Test [14] relates to SK-MEL-28.
The subject of test [15] is A498.
Test [16] has as its system U-251.
Test [17] has as its system COLO 205.
For test [18], the system named is OVCAR-5.
For test [19], the system named is DMS-273.
For test [20], the system named is SF-539.

Turning to `CCCCCCCCCC[C@@H](O)[C@@H]1CC[C@@H]([C@@H]2CC[C@@H]([C@@H](O)CCCCCCCCCC[C@H](O)CC3=CC(C)OC3=O)O2)O1` (some centres not stated), the GI50 (usually the concentration giving 50% growth inhibition) in test [1] was 6.28 µM (inactive); in test [2], 1.79 µM (inactive); in test [3], 3.71 µM (inactive); in test [4], 4.23 µM (inactive); in [5], 6.71 µM (inactive); in test [6] it was 0.834 µM (active). Moreover, the GI50 in test [7] was 3.87 µM (inactive); in [8], 2.16 µM (inactive); in [9] it was 5.62 µM (inactive); in [10], 2.26 µM (inactive); in [11], 1.77 µM (inactive); in test [12] it was 0.256 µM (active). Moreover, the GI50 in test [13] was 1.73 µM (inactive); in test [14], 3.36 µM (inactive); in test [15], 1.7 µM (inactive); in test [16] it was 6.03 µM (inactive); in [17], 3.94 µM (inactive); in test [18], 9.25 µM (inactive). The GI50 is 2.36 µM (inactive) in test [19] and 4.5 µM (inactive) in test [20].

In the case of `CC(=O)O[C@@]12CO[C@@H]1C[C@H](O)[C@@]1(C)C(=O)[C@H](O)C3=C(C)[C@@H](OC(=O)[C@H](O)[C@@H](NC(=O)OC(C)(C)C)c4ccccc4)C[C@@](O)([C@@H](OC(=O)c4ccccc4)[C@H]21)C3(C)C` [DOCETAXEL], the GI50 in test [1] was 21.8 µM (inactive); in [2], > 10 µM (inactive); in test [4] it was 0.00342 µM (active); in [6] it was < 0.0585 µM (active); in [7] it was < 0.01 µM (active); in [8], < 0.01 µM (active). The GI50 in [9] is < 0.01 µM (active); in test [10], 9.04 µM (inactive); in test [11], < 0.0631 µM (active); in [13], < 0.01 µM (active); in [15], < 0.0851 µM (active); in test [16] it was < 0.01 µM (active). For the same compound, the GI50 in test [17], in test [18], in [19] and in [20] was < 0.01 µM (active) each time.

`Oc1cc(-c2cccc(Cl)c2)nc2cc3c(cc12)OCO3`: the GI50 in test [1] is > 75 µM (inactive); in test [2], 0.138 µM (active); in test [3], 0.179 µM (active); in test [4], 0.284 µM (active); in test [5], 0.207 µM (active); in [6] it was 0.305 µM (active). The GI50 in test [8] is 0.24 µM (active); in test [9] it was 0.912 µM (active); in test [10], 0.951 µM (active); in test [11], 1.89 µM (inactive); in [12] it was 0.208 µM (active); in test [13] it was 2.47 µM (inactive). In addition, the GI50 in [15] is 0.371 µM (active); in test [17] it was 1.85 µM (inactive); in [18], 18.8 µM (inactive); in test [19], 0.327 µM (active); in test [20], 0.257 µM (active).

Turning to `CC[C@]12C=CCN3CCC4(c5cc([C@@]6(C(=O)OC)CC7CN(CCc8c6[nH]c6ccccc86)C[C@@H]6CCCC[C@H]76)c(OC)cc5N(C)C4[C@](O)(C(=O)OC)C1OC(C)=O)[C@@H]32` (some centres not stated), the GI50 is 5.2 µM (inactive) in test [1]; < 0.01 µM (active) in test [2]; < 0.01 µM (active) in [3]; 1.32 µM (inactive) in test [4]; < 0.01 µM (active) in test [5]; < 0.01 µM (active) in [6]. Also, the concentration for 50% growth inhibition (GI50) in test [7] was < 0.01 µM (active); in test [8] it was < 0.01 µM (active); in [9], < 0.01 µM (active); in [10] it was 0.0259 µM (active); in [11], < 0.01 µM (active); in test [12], 0.0148 µM (active). The GI50 in [13] is < 0.01 µM (active); in test [14], 2.11 µM (inactive); in test [15], < 0.01 µM (active); in test [16], < 0.01 µM (active); in test [17] it was < 0.01 µM (active); in test [19], < 0.01 µM (active). The GI50 in test [20] was < 0.01 µM (active).

Turning to `c1ccc(CN2CCc3[nH]c4ccccc4c3C2)cc1`, the GI50 in [1] was 34.8 µM (inactive); in test [2], 17.8 µM (inactive); in test [3] it was 17.3 µM (inactive); in test [4], 30.5 µM (inactive); in test [5], 19.9 µM (inactive); in [6] it was 18.3 µM (inactive). The GI50 is 43.8 µM (inactive) in test [7]; 22.5 µM (inactive) in test [8]; 34.3 µM (inactive) in [9]; 18 µM (inactive) in [10]; 22.2 µM (inactive) in test [11]; 36.1 µM (inactive) in test [12]. Moreover, the GI50 in [13] was 67.8 µM (inactive); in test [14], 17.5 µM (inactive); in test [15], 26.6 µM (inactive); in [16], 21.4 µM (inactive); in [17] it was 16.9 µM (inactive); in test [18], 39.9 µM (inactive). In addition, the GI50 was 56.2 µM (inactive) in test [19] and 25 µM (inactive) in test [20].

`COc1ccc(/C=C\c2cc(OC)c(OC)c(OC)c2)cc1OC`: the GI50 is 15.8 µM (inactive) in test [1]; 0.0746 µM (active) in test [2]; 0.139 µM (active) in [3]; 0.912 µM (active) in test [4]; 0.0641 µM (active) in test [5]; 0.32 µM (active) in [6]. Further, the GI50 in [7] is 0.298 µM (active); in test [8] it was 0.0957 µM (active); in test [9] it was 0.216 µM (active); in test [10] it was 9.66 µM (inactive); in [11], 0.194 µM (active); in test [12] it was 0.222 µM (active). Also, the GI50 in test [13] was 0.239 µM (active); in test [14] it was 0.143 µM (active); in test [15] it was 0.236 µM (active); in [16] it was 0.117 µM (active); in test [17], 0.0767 µM (active); in test [18], 12.2 µM (inactive). Further, the values for the concentration for 50% growth inhibition (GI50) in test [19] and in test [20] were 0.0207 µM (active) and 0.113 µM (active), respectively.
